This is an account of results in PMC12584752, “Covalent fragment screening to inhibit the E3 ligase activity of bacterial NEL enzymes SspH1 and SspH2” (RSC Chemical Biology, 2025).

The assay has as its target SspH1 (161–700) (Salmonella typhimurium, UniProt D0ZVG2). Briefly: Round 1 intact protein LC-MS covalent fragment labelling screen and dilution series. The class given is binding. Further details: Recombinant IpaH9.8 (21–545) and SspH1 (161–700) were incubated at 0.5 μM; His-tag (N, cleaved yes); made in house; host or cells: E. coli BL21. The following applies: 24 hours at 4 °C. On the procedure: A diverse library of 227 compounds with chloroacetamide warheads, featuring a diversity of molecular weight (162–321 Da) and clog P (−1.4 to 3.4) (Table S1), were screened against Salmonella and Shigella NEL E3 ligases using our intact protein liquid chromatography mass spectrometry (LC-MS) platform as previously described.[39,40] Briefly, recombinant SspH1 (161–700[30]) and IpaH9.8 (21–545[29]) (Fig. 1A and B) were incubated with 50 μM fragments for 24 hours at 4 °C before analysis by LC-MS (Fig. 1C). Raw counts were deconvoluted and the labelling percentage calculated by detection and comparison of protein and protein-fragment molecular weights.
Fig. 1 Intact protein LCMS screening of covalent fragment library against NEL proteins. (A) Cartoon depicting conserved NEL E3 ligase domains; (B) overlaid structures of SspH1 (blue, PDB 9H6W[30]) and IpaH9.8 (green, PDB 6LOL[29]) aligned on NEL domain; (C) workflow of covalent fragment screening using intact LC-MS; (D) fragment labelling percentages for SspH1 and IpaH9.8 with fragments 1–3 highlighted. Recombinant IpaH9.8 (21–545) and SspH1 (161–700) were incubated at 0.5 μM with 50 μM fragments for 24 hours at 4 °C, before fragment labelling was analysed by intact LC-MS; (E) chemical structures of fragments 1–3.
We next analysed the potency of compounds 4–10 against SspH1. The seven compounds were obtained as purified compounds (Table S2) and screened against SspH1 by intact LC-MS (Fig. 3A) with two-fold serial dilution (100–6.25 μM). To confirm which of the two cysteines in the SspH1 161–700 construct were labelled, we repeated the concentration response experiment with a catalytic cysteine mutant of SspH1 (C492K) (Fig. 3B). The complete abrogation of labelling confirmed that all […] compounds labelled the catalytic cysteine of SspH1.
1 μM IpaH9.8 or SspH1 were incubated with […] fragments for 24 hours at 4 °C, in 25 mM HEPES pH 7.5, 50 mM NaCl buffer. Intact protein LC-MS was performed as previously described.[40] The following deconvolution conditions were used for recombinant proteins studied in this work:
Dilution series experiments were performed as for 1st round screening. 1 μM OTUD4, OTUD5 or 0.5 μM HOIL, UbcH5A, SspH2, SspH1 C492K were incubated with 100–6.25 μM compounds for 24 hours at 4 °C, in 25 mM HEPES pH 7.5, 50 mM NaCl buffer. Intact protein LC-MS was performed as previously described.[40] The following deconvolution conditions were used for recombinant proteins studied in this work: […]

Sequence of SspH1 (161–700) (D0ZVG2 161-700): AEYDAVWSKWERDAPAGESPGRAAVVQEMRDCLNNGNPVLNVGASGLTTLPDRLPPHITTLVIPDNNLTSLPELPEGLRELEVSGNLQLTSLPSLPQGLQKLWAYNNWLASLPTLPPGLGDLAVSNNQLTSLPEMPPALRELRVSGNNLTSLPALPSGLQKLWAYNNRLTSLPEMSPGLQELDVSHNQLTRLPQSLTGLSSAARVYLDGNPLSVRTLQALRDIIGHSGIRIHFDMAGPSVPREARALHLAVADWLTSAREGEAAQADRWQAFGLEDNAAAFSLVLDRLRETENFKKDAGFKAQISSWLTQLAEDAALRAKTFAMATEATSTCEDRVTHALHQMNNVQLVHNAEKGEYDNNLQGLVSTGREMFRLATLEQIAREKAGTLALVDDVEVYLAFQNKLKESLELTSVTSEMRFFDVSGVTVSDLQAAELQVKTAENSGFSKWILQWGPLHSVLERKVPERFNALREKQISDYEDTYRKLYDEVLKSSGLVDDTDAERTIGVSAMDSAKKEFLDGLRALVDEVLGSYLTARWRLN

`Cc1cc(-c2nc3ccccc3n2C2CCN(C(=O)CCl)CC2)cc(C)c1O.Cl` [compound 6]: the “labelling of WT SspH1” value was greater than 60% (purified compound at 6.25 μM) and greater than 80% (purified compound at 12.5 μM).

On to `Cl.O=C(CCl)N1CCC(n2c(-c3ccc(C(F)(F)F)cc3)nc3ccccc32)CC1` [compound 7], for which the “labelling of WT SspH1” value by setting is: (purified compound at 6.25 μM) greater than 60%; (purified compound at 12.5 μM) greater than 80%.
